Data published in PubChem BioAssay AID256 (DTP/NCI, 2004).
Inconclusive results and toxic doses are left out.

Test system: CD2F1 mice, L1210 leukemia ip, survival T/C
Assay: NCI In Vivo Anticancer Drug Screen. Data for tumor model L1210 Leukemia (intraperitoneal) in CD2F1 (CDF1) mice
Conditions: higher = longer survival
How it was run: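 Tumor-bearing mice (transplanted tumor) were split into treated and vehicle control groups, and the measured endpoint of each treated group was divided by that of its vehicle controls.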

[1] = endpoint: mean survival time, dose: 100.0 mg/kg/injection, schedule: Q04DX002 (ip), vehicle: saline with Tween-80
[2] = endpoint: mean survival time, dose: 200.0 mg/kg/injection, schedule: Q04DX002 (ip), vehicle: saline with Tween-80
[3] = endpoint: mean survival time, dose: 400.0 mg/kg/injection, schedule: Q04DX002 (ip), vehicle: saline with Tween-80
[4] = endpoint: mean survival time, dose: 100.0 mg/kg/injection, schedule: Q04DX003 (ip), vehicle: saline with Tween-80
[5] = endpoint: mean survival time, dose: 400.0 mg/kg/injection, schedule: Q04DX003 (ip), vehicle: saline with Tween-80
[6] = endpoint: mean survival time, dose: 100.0 mg/kg/injection, schedule: Q01DX001 (ip), vehicle: saline with Tween-80
[7] = endpoint: mean survival time, dose: 200.0 mg/kg/injection, schedule: Q01DX001 (ip), vehicle: saline with Tween-80
[8] = endpoint: mean survival time, dose: 400.0 mg/kg/injection, schedule: Q01DX001 (ip), vehicle: saline with Tween-80
[9] = endpoint: mean survival time, dose: 200.0 mg/kg/injection, schedule: Q04DX003 (ip), vehicle: saline with Tween-80

Cc1cccc(C)c1NC(=O)/C=C/c1ccccc1
T/C [1]: 94 % of control | T/C [2]: 90 % of control | T/C [3]: 98 % of control

Brc1ccc(-c2csc(Nc3nc(-c4ccc(Br)cc4)cs3)n2)cc1
T/C (endpoint: mean survival time, dose: 12.5 mg/kg/injection, schedule: Q01DX009 (ip), vehicle: saline with Tween-80): 86 % of control | T/C (endpoint: mean survival time, dose: 25.0 mg/kg/injection, schedule: Q01DX009 (ip), vehicle: saline with Tween-80): 96 % of control | T/C (endpoint: mean survival time, dose: 25.0 mg/kg/injection, schedule: Q04DX003 (ip), vehicle: saline with Tween-80): 97 % of control | T/C (endpoint: mean survival time, dose: 50.0 mg/kg/injection, schedule: Q01DX009 (ip), vehicle: saline with Tween-80): 96 % of control | T/C (endpoint: mean survival time, dose: 50.0 mg/kg/injection, schedule: Q04DX003 (ip), vehicle: saline with Tween-80): 87 % of control | T/C [4]: 88 % of control | T/C [5]: 92 % of control

CN(C)C(=O)c1ccccc1C(=O)c1ccccc1
T/C [1]: 94 % of control | T/C [2]: 87 % of control | T/C [3]: 91 % of control

O=C(O)C(O)(O)C(=O)O
T/C [6]: 102 % of control | T/C [7]: 102 % of control | T/C [8]: 102 % of control

CSc1nc(NN)c2cnn(C3OC(CO)C(O)C3O)c2n1 (centres undefined)
T/C (endpoint: median survival time, dose: 11.3 mg/kg/injection, schedule: Q01DX005 (ip), vehicle: saline with Tween-80): 107 % of control | T/C (endpoint: median survival time, dose: 22.5 mg/kg/injection, schedule: Q01DX005 (ip), vehicle: saline with Tween-80): 104 % of control | T/C (endpoint: median survival time, dose: 45.0 mg/kg/injection, schedule: Q01DX005 (ip), vehicle: saline with Tween-80): 102 % of control | T/C (endpoint: median survival time, dose: 90.0 mg/kg/injection, schedule: Q01DX005 (ip), vehicle: saline with Tween-80): 105 % of control

CNCc1c[nH]c(=O)[nH]c1=O
T/C [4]: 102 % of control | T/C [9]: 98 % of control | T/C [5]: 94 % of control

COC(=O)COS(=O)(=O)c1ccc(C)cc1
T/C [6]: 95 % of control | T/C [7]: 96 % of control | T/C [8]: 100 % of control

COC1=C(c2ccccc2)/C(=C/c2ccccc2)OC1=O
T/C [6]: 104 % of control | T/C [7]: 96 % of control | T/C [8]: 93 % of control

CCOC(c1ccccc1)(c1ccccc1)c1ccccc1
T/C (endpoint: mean survival time, dose: 100.0 mg/kg/injection, schedule: Q01DX009 (ip), vehicle: other): 98 % of control | T/C (endpoint: mean survival time, dose: 200.0 mg/kg/injection, schedule: Q01DX009 (ip), vehicle: other): 102 % of control | T/C (endpoint: mean survival time, dose: 400.0 mg/kg/injection, schedule: Q01DX009 (ip), vehicle: other): 96 % of control

O=C(CCl)NCc1cn(C2CC(O)C(CO)O2)c(=O)[nH]c1=O (centres undefined)
T/C (endpoint: mean survival time, dose: 5.6 mg/kg/injection, schedule: Q01DX005 (ip), vehicle: water): 111 % of control | T/C (endpoint: mean survival time, dose: 11.25 mg/kg/injection, schedule: Q01DX005 (ip), vehicle: water): 100 % of control | T/C (endpoint: mean survival time, dose: 22.5 mg/kg/injection, schedule: Q01DX005 (ip), vehicle: water): 103 % of control | T/C (endpoint: mean survival time, dose: 45.0 mg/kg/injection, schedule: Q01DX005 (ip), vehicle: water): 95 % of control | T/C (endpoint: mean survival time, dose: 90.0 mg/kg/injection, schedule: Q01DX005 (ip), vehicle: water): 103 % of control

FC(F)(F)/C([S-])=C(/[S-])C(F)(F)F.N#[O+].[Mn].[c-]1[c-][c-][cH-][c-]1
T/C (endpoint: mean survival time, dose: 75.0 mg/kg/injection, schedule: Q01DX001 (ip), vehicle: other): 103 % of control

CN1CCC(C(O)c2ccccc2)CC1 (centres undefined)
T/C [4]: 102 % of control | T/C [9]: 100 % of control | T/C [5]: 88 % of control

COc1ccccc1NC(=O)N(CCCl)N=O
T/C (endpoint: mean survival time, dose: 1.5 mg/kg/injection, schedule: Q01DX009 (ip), vehicle: carboxymethylcellulose (CMC)): 115 % of control | T/C (endpoint: mean survival time, dose: 3.5 mg/kg/injection, schedule: Q01DX009 (ip), vehicle: carboxymethylcellulose (CMC)): 168 % of control

CCCOc1ccc(/C=N\N=C\c2ccc(OCCC)cc2)cc1
T/C [4]: 89 % of control | T/C [9]: 89 % of control | T/C [5]: 91 % of control

CC1(O)CS(=O)(=O)CC1O (centres undefined)
T/C (endpoint: mean survival time, dose: 100.0 mg/kg/injection, schedule: Q01DX001 (ip), vehicle: saline): 105 % of control | T/C (endpoint: mean survival time, dose: 200.0 mg/kg/injection, schedule: Q01DX001 (ip), vehicle: saline): 103 % of control | T/C (endpoint: mean survival time, dose: 400.0 mg/kg/injection, schedule: Q01DX001 (ip), vehicle: saline): 101 % of control
